{"source": "patent US20240185945A1", "about": "“SYSTEMS AND METHODS FOR MODELING AND DISPLAYING SWEETENER SYNERGY” (WM. WRIGLEY JR. COMPANY, priority 2022, published 2024)", "target": "T1, sweet taste receptor (Homo sapiens, UniProt Q7RTX0+Q8TE23)", "T1 sequence (Q8TE23 20-839)": "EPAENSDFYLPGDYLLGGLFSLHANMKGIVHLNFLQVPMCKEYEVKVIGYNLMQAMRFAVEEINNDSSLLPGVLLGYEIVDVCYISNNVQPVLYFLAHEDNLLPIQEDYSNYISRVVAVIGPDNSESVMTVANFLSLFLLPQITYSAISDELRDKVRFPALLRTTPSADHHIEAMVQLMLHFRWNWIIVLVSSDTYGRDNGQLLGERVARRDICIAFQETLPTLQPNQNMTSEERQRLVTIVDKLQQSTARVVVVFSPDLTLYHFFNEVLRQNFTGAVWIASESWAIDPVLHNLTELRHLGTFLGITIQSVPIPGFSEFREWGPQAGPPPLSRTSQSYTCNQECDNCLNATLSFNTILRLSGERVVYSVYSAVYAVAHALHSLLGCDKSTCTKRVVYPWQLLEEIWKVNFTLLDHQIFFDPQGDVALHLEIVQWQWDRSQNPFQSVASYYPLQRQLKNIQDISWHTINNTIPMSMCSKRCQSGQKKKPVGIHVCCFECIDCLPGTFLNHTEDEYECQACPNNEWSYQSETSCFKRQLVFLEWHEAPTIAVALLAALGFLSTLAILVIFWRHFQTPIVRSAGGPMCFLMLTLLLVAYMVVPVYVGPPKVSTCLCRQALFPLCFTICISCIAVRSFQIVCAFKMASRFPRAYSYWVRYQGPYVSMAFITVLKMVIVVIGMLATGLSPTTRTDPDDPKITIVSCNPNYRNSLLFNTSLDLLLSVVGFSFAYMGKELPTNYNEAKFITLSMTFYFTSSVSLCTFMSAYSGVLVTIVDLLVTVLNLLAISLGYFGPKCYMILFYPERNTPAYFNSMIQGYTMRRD", "T1 sequence (Q7RTX0 21-852)": "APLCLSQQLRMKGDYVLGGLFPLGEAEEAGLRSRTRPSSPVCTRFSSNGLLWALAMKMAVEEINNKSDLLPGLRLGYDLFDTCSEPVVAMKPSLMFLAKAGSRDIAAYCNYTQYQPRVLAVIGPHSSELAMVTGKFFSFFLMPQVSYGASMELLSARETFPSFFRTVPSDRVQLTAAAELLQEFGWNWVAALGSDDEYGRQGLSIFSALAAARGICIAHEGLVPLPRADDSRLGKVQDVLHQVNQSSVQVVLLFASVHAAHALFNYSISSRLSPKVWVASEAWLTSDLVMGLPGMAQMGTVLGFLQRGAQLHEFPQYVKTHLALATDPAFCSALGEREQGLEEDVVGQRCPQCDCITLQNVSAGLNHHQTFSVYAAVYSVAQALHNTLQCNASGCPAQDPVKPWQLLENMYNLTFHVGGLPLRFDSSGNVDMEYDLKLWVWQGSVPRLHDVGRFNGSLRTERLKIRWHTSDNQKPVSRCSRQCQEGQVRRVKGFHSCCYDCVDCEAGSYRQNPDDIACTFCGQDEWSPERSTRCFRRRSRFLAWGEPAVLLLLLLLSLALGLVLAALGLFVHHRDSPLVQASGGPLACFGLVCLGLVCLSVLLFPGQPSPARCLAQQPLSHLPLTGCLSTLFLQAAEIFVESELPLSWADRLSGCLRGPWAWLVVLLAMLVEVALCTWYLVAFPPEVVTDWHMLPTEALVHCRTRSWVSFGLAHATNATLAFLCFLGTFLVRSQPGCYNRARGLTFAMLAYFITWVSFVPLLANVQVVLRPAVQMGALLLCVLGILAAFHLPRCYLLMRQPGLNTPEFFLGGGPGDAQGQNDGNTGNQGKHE", "assay": "Synergy effects (sweet taste receptor signal increase) in binary compound mixtures", "type": "cell-based", "settings": "calculated as L(X&Y)/(L(X)+L(Y)); for Synergy effect observed in binary compound mixture with Aspartame: partner Aspartame; for Synergy effect observed in binary compound mixture with Thaumatin: partner Thaumatin; for Synergy effect observed in binary compound mixture with NHDC: partner NHDC; for Synergy effect observed in binary compound mixture with sucralose: partner sucralose; for Synergy effect observed in binary compound mixture with sucrose: partner sucrose; for Synergy effect observed in binary compound mixture with Reb A: partner Reb A", "protocol": "The present example describes sweet taste receptor signal increases calculated for the following sweeteners: aspartame, sucrose, sucralose, rebaudioside A, rebaudioside D, thaumatin, NHDC, and S819 are present in various combinations in a binary mixture as shown in Table 1.\nSynergy between binary mixtures of the sweeteners was calculated as following: L(X&Y)/(L(X)+L(Y))."}
{"molecule": "COc1ccc(CCC(=O)c2c(O)cc(O[C@@H]3O[C@H](CO)[C@@H](O)[C@H](O)[C@H]3O[C@@H]3O[C@@H](C)[C@H](O)[C@@H](O)[C@H]3O)cc2O)cc1O", "note": "[NHDC]", "values": [{"measurement": "Synergy effect observed in binary compound mixture with Aspartame", "value": 0.5}, {"measurement": "Synergy effect observed in binary compound mixture with Thaumatin", "value": 0.06}]}
{"molecule": "C=C1C[C@@]23CC[C@H]4[C@@](C)(CCC[C@@]4(C)C(=O)O[C@@H]4O[C@H](CO)[C@@H](O)[C@H](O)[C@H]4O)[C@@H]2CC[C@]1(O[C@@H]1O[C@H](CO)[C@@H](O)[C@H](O[C@@H]2O[C@H](CO)[C@@H](O)[C@H](O)[C@H]2O)[C@H]1O[C@@H]1O[C@H](CO)[C@@H](O)[C@H](O)[C@H]1O)C3", "note": "[Reb A, Rebaudioside A]", "values": [{"measurement": "Synergy effect observed in binary compound mixture with NHDC", "value": 0.25}, {"measurement": "Synergy effect observed in binary compound mixture with sucralose", "value": 0.3}, {"measurement": "Synergy effect observed in binary compound mixture with sucrose", "value": 0.5}]}
{"molecule": "C=C1C[C@@]23CC[C@H]4[C@@](C)(CCC[C@@]4(C)C(=O)O[C@@H]4O[C@H](CO)[C@@H](O)[C@H](O)[C@H]4O[C@@H]4O[C@H](CO)[C@@H](O)[C@H](O)[C@H]4O)[C@@H]2CC[C@]1(O[C@@H]1O[C@H](CO)[C@@H](O)[C@H](O[C@@H]2O[C@H](CO)[C@@H](O)[C@H](O)[C@H]2O)[C@H]1O[C@@H]1O[C@H](CO)[C@@H](O)[C@H](O)[C@H]1O)C3", "note": "[Reb D, Rebaudioside D]", "values": [{"measurement": "Synergy effect observed in binary compound mixture with sucralose", "value": 0.3}, {"measurement": "Synergy effect observed in binary compound mixture with sucrose", "value": 0.25}]}
{"molecule": "CC(C)Oc1ccc(NC(=S)NCc2ccc[nH]2)cc1", "note": "[S819, 1-((1H-pyrrol-2-yl)methyl)-3-(4-isopropoxyphenyl)thiourea]", "values": [{"measurement": "Synergy effect observed in binary compound mixture with NHDC", "value": 0.4}, {"measurement": "Synergy effect observed in binary compound mixture with Reb A", "value": 0.25}, {"measurement": "Synergy effect observed in binary compound mixture with Thaumatin", "value": 0.4}]}
{"molecule": "Thaumatin", "values": [{"measurement": "Synergy effect observed in binary compound mixture with Aspartame", "value": 0.5}, {"measurement": "Synergy effect observed in binary compound mixture with Reb A", "value": 0.4}]}
